Drawing on PMC12040169 (PLOS Biology, 2025), this text covers viability for 30 molecules.

The data set is described as follows: in vitro. Particulars: human, hela cells, % viability.

By viability is commonly meant a read-out of living cells in per cent, often relative to untreated cells. For the molecule `Cc1cc(C(=O)CSc2nnc(C(C)C)n2Cc2ccco2)c(C)n1C` [CBK295178], the viability at 28.5 h, 10 µM turned out to be 81.9%. As for `Nc1nnc(SCC(=O)N(Cc2ccccc2F)C2CC2)s1` [CBK295179], the viability at 28.5 h, 10 µM came to 84.3%. Consider `Cc1nn(Cc2ccc(F)cc2)c2sc(C(=O)NCc3ccc(S(N)(=O)=O)cc3)cc12` [CBK295181], for which the viability at 28.5 h, 10 µM came out at 87%. To `COc1ccc(C2(C)NC(=O)N(CC(=O)Nc3ccc(NC(C)=O)cc3)C2=O)cc1` (stereo not drawn) [CBK295182] belongs 106%; to `Cc1ccc(CNC(=O)C2CC(=O)N(c3cccc(C)c3C)C2)cc1` (stereo not drawn) [CBK295183], 97.5%; to `CN(CC(=O)NCc1ccc2c(c1)OCO2)Cc1ccc(Br)s1` [CBK295185], 80.4%. With `CCN(CC)C(=O)c1ccc(NC(=O)CSc2n[nH]c(=O)n2CC2CCCO2)cc1` (stereo not drawn) [CBK295186], the viability at 28.5 h, 10 µM amounted to 77.6%. In the case of `O=C(C1CN(Cc2nc3ccsc3c(=O)[nH]2)c2ccccc2O1)N1CCOCC1` (stereo not drawn) [CBK295189], the viability at 28.5 h, 10 µM turned out to be 109%. Next, `COCCN(Cc1nnc(-c2cccs2)o1)C(C(=O)N1CCOCC1)c1ccccc1` (stereo not drawn) [CBK295190]: 104%.

Regarding `O=c1c2c3c(sc2ncn1CC(O)COc1ccc(F)cc1)CCC3` (stereo not drawn) [CBK295191], the viability at 28.5 h, 10 µM is 102%. As to `COc1ccc(C(=O)C2CCN(Cc3cccc4cccnc34)CC2)cc1` [CBK295192], the viability at 28.5 h, 10 µM amounted to 85.3%. Next, `Cc1nc(-c2ccccc2)ccc1C(=O)Nc1nc(CC(N)=O)cs1` [CBK295195]: 96.8%; `CCn1c(=O)n(CCC(=O)NC(C(N)=O)c2ccccc2)c2ccccc21` (stereo not drawn) [CBK295196]: 89.7%; `CCc1ccccc1Nc1nnc(SC(C)C(=O)N2CCCC2)s1` (stereo not drawn) [CBK295197]: 106%. To `COc1ccc(C(=O)NCC(=O)Nc2ccc(N3CCCCC3)cc2)cc1OC` [CBK295199] belongs 94.3%; to `COCCn1c(SC)nc2sc(-c3ccccc3)cc2c1=O` [CBK295200], 89.8%. To `Cc1nc(SCC(N)=O)nc(C)c1CCC(=O)NCc1ccc(F)cc1` [CBK295201] belongs 88.5%; to `CCc1ccc(C(=O)Nc2ccc(NC(C)=O)cc2C(F)(F)F)cc1` [CBK295202], 84.1%. Regarding `Cc1nc2c3ccccc3nc(SCC(=O)Nc3ccccc3)n2n1` [CBK295205], the viability at 28.5 h, 10 µM was found to be 78.5%.

As to `CCN(C(=O)C(C)N(C)Cc1c(C)nn(C2CCS(=O)(=O)C2)c1C)c1cccc2ccccc12` (stereo not drawn) [CBK295206], the viability at 28.5 h, 10 µM was 108%. To `O=C(c1ccc2ncsc2c1)N1CCN(S(=O)(=O)c2ccc(C(F)(F)F)cc2)CC1` [CBK295285] belongs 98.2%; to `O=C(O)c1sccc1S(=O)(=O)Nc1ccc(Cc2nc3ccccc3s2)cc1` [CBK295286], 92.8%; to `Cc1cccc(Oc2ccccc2NS(=O)(=O)c2ccc3c(c2)N(CC(=O)O)C(=O)CO3)c1` [CBK295287], 92.1%. Next, `COc1ccc2cc(COC(=O)c3cnc(C)cn3)c(Cl)nc2c1` [CBK295288]: 106%; `CCOc1ncccc1C(=O)OCc1cc2ccc(OC)cc2nc1Cl` [CBK295289]: 78.1%; `C=CCn1c(Cc2csc(NC(=O)c3ccc([N+](=O)[O-])cc3)n2)n[nH]c1=S` [CBK295290]: 96.2%.

For `C=CCn1c(Cc2csc(NC(=O)c3ccc([N+](=O)[O-])cc3Cl)n2)n[nH]c1=S` [CBK295291], the viability at 28.5 h, 10 µM stood at 76.1%. To `C=CCn1c(Cc2csc(NC(=O)c3ccc(C)cc3)n2)n[nH]c1=S` [CBK295292] belongs 96.4%; to `CC(=O)N1CCN(C(=O)c2nn(-c3ccc(F)cc3)c3c2CCCCC3)CC1` [CBK295293], 107%.

Regarding `CCNS(=O)(=O)c1ccc(NS(=O)(=O)c2cc(C(=O)O)ccc2C)cc1` [CBK295296], the viability at 28.5 h, 10 µM worked out at 82.8%.
